Data taken from ChEMBL document CHEMBL4004847, “New tacrine-derived AChE/BuChE inhibitors: Synthesis and biological evaluation of 5-amino-2-phenyl-4H-pyrano[2,3-b]quinoline-3-carboxylates” (Eur J Med Chem, 2017).
≈ marks a conversion by molar mass, not a printed value. Calls of active or inactive are those of the source. The rule behind the calls is not given here.

Tests used:
Cholinesterase = Cholinesterase (Homo sapiens, UniProt P06276)
Description: Inhibition of human BuChE using butyrylthiocholine iodide as substrate preincubated for 5 mins followed by substrate addition measured for 1 min by Ellman's method

PC-12 [1] = assay: Neuroprotective activity against H2O2-induced cell death in rat PC12 cells assessed as increase in cell viability at 100 uM preincubated for 3 hrs followed by H2O2 addition measured after 24 hrs by MTT assay; assay type: functional, cell-based
Acetylcholinesterase [2] = target: T1, Acetylcholinesterase (Electrophorus electricus, UniProt O42275); assay: Mixed-type inhibition of electric eel AChE preincubated for 5 mins followed by varying levels acetylthiocholine iodide substrate addition by Lineweaver-Burk plot analysis
Acetylcholinesterase [3] = target: T1, Acetylcholinesterase
Description: Inhibition of electric eel AChE using acetylthiocholine iodide as substrate preincubated for 5 mins followed by substrate addition measured for 1 min by Ellman's method

HepG2 = assay: cells; conditions: Homo sapiens, HepG2, 24 h
Description: Cytotoxicity against human HepG2 cells assessed as reduction in cell viability after 24 hrs by MTT assay

PC-12 [4] = assay: Neuroprotective activity against H2O2-induced cell death in rat PC12 cells assessed as increase in cell viability at 10 uM preincubated for 3 hrs followed by H2O2 addition measured after 24 hrs by MTT assay; assay type: functional, cell-based

T1 sequence (O42275 whole entry): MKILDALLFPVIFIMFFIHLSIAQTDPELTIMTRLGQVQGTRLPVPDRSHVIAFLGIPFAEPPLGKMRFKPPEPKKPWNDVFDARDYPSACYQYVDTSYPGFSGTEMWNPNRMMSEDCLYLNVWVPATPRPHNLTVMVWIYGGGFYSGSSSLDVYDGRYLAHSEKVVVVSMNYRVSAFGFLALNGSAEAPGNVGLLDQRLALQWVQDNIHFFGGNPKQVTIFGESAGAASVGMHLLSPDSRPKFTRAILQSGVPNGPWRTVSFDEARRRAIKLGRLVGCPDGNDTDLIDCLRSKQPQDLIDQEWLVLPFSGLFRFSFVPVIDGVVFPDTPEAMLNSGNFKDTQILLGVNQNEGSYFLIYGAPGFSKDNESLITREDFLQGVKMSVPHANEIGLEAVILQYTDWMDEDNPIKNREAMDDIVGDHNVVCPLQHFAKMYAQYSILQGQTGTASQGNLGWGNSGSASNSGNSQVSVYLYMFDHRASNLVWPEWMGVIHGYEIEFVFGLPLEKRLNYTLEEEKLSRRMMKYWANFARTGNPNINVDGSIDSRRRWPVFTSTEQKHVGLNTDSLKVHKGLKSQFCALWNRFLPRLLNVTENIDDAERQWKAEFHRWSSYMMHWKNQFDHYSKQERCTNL
Sequence of Cholinesterase (P06276 whole entry): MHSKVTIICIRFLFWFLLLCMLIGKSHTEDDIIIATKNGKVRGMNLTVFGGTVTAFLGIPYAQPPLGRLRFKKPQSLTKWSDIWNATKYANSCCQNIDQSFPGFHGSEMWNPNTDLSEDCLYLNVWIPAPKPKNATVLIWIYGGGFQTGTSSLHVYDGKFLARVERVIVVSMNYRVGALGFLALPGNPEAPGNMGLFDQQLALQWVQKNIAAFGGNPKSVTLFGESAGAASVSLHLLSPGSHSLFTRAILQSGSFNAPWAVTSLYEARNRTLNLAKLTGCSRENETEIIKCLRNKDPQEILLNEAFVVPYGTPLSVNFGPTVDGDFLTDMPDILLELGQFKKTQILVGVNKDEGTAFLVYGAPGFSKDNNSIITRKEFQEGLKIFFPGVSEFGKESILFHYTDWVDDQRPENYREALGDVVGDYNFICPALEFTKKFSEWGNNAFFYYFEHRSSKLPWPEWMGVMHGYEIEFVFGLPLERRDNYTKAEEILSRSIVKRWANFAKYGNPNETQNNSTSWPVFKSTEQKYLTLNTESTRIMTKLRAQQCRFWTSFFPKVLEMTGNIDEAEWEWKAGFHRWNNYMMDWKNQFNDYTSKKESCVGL

SMILES | IC50 (Cholinesterase) [nM] | Activity (PC-12 [1]) | Ki (Acetylcholinesterase [2]) [nM] | IC50 (Acetylcholinesterase [3]) [nM] | IC50 (HepG2) [µg/mL] | Activity (PC-12 [4])
CCOC(=O)C1=C(c2ccccc2)Oc2nc3c(c(N)c2C1c1cccc(Br)c1)CCCC3 (stereo not drawn) | 1350 | Active | 48.5 | 69 | 72.8 (≈ 144 µM) | 
CCOC(=O)C1=C(c2ccccc2)Oc2nc3c(c(N)c2C1c1ccccc1)CCCC3 (stereo not drawn) | 5490 |  |  | 423 |  | 
CCOC(=O)C1=C(c2ccccc2)Oc2nc3c(c(N)c2C1c1cccc(F)c1)CCCC3 (stereo not drawn) | 11700 |  |  | 778 |  | 
CCOC(=O)C1=C(c2ccccc2)Oc2nc3c(c(N)c2C1c1cccc([N+](=O)[O-])c1)CCCC3 (stereo not drawn) | 40900 |  |  | 2730 | > 100 | 
CCOC(=O)C1=C(c2ccccc2)Oc2nc3c(c(N)c2C1c1ccccc1Cl)CCCC3 (stereo not drawn) | 2140 | Active |  | 153 | > 100 | Active
CCOC(=O)C1=C(c2ccccc2)Oc2nc3c(c(N)c2C1c1ccccc1F)CCCC3 (stereo not drawn) | 3630 |  |  | 370 |  | 
CCOC(=O)C1=C(c2ccccc2)Oc2nc3c(c(N)c2C1c1ccc(F)cc1)CCCC3 (stereo not drawn) | 6100 |  |  | 404 |  | 
CCOC(=O)C1=C(c2ccccc2)Oc2nc3c(c(N)c2C1c1cccc(Cl)c1)CCCC3 (stereo not drawn) | 3100 | Active |  | 228 | 50.4 (≈ 109 µM) | 
CCOC(=O)C1=C(c2ccccc2)Oc2nc3c(c(N)c2C1c1ccc(Cl)cc1)CCCC3 (stereo not drawn) | 17600 |  |  | 1100 |  | 
CCOC(=O)C1=C(c2ccccc2)Oc2nc3c(c(N)c2C1c1ccccc1Br)CCCC3 (stereo not drawn) | 2760 | Active |  | 118 | > 100 | 
CCOC(=O)C1=C(c2ccccc2)Oc2nc3c(c(N)c2C1c1ccc(Cl)cc1Cl)CCCC3 (stereo not drawn) | 22700 |  |  | 1620 |  | 
CCOC(=O)C1=C(c2ccccc2)Oc2nc3c(c(N)c2C1c1ccc([N+](=O)[O-])cc1)CCCC3 (stereo not drawn) | 9910 |  |  | 583 |  | 
CCOC(=O)C1=C(c2ccccc2)Oc2nc3c(c(N)c2C1c1cccc(OC)c1)CCCC3 (stereo not drawn) | 7140 |  |  | 510 |  | 
CCOC(=O)C1=C(c2ccccc2)Oc2nc3c(c(N)c2C1c1ccc(OC)cc1)CCCC3 (stereo not drawn) | 5760 |  |  | 480 |  | 
CCOC(=O)C1=C(c2ccccc2)Oc2nc3c(c(N)c2C1c1ccc(C)cc1)CCCC3 (stereo not drawn) | 54100 |  |  | 4160 |  | 
CCOC(=O)C1=C(c2ccccc2)Oc2nc3c(c(N)c2C1c1ccc(Br)cc1)CCCC3 (stereo not drawn) | 74200 |  |  | 6220 |  | 
